For this experiment, the system named is Plasmodium berghei. The experiment in a line: Luciferase/luciferin-expressing antifolate-resistant parasites were used to infect a culture of HepG2 cells that were pre-incubated with compounds. Infected hepatocytes emit light due to the luciferase reaction. Assay results are presented as the percent inhibition of light emission compared to control. […]. Type of experiment: functional. The following applies: sporozoite; for IC90: read-out: LUCIFERASE INFECTION ASSAY - IC90.

Where [1] appears, read: read-out: LUCIFERASE INFECTION ASSAY - IC50.

Regarding `Fc1cccc(NC(=S)NN=C2CCCCCC2)c1`, the IC90 was more than 11.8 µM. Also, the concentration for half-maximal inhibition (IC50) (PBLUC_HILL_SLOPE 0.519, PBLUC_R_SQUARED 0.189, read-out: LUCIFERASE INFECTION ASSAY - IC50) was more than 11.8 µM.
In the case of `O=S(=O)(c1ccc2ccccc2c1)N1CCN(c2ncc(C(F)(F)F)cc2Cl)CC1`, the 90% effect concentration (IC90) is more than 7.24 µM. The half-inhibitory concentration (IC50) under setting [1] was more than 7.24 µM.
For `COc1cc(OC)cc(-c2cnc3cnc(-c4cccc(C)c4C)cn23)c1`, the 90% effect concentration (IC90) was found to be 8.63 µM. The half-maximal inhibitory concentration (IC50) (HEPG2TOX_HILL_SLOPE 2.52, HEPG2TOX_R_SQUARED 0.881, PBLUC_HILL_SLOPE 5.04, PBLUC_R_SQUARED 0.463, read-out: LUCIFERASE INFECTION ASSAY - IC50) was 5.58 µM.
As for `O=C(NC1CCCCC1)c1ccccc1-n1ncc(Cl)c(Cl)c1=O`, the concentration for an effect of 90% (IC90) came out at 3.79 µM. For the setting “FFLUC_HILL_SLOPE 2.05, FFLUC_R_SQUARED 0.721, HEPG2TOX_HILL_SLOPE 15.4, HEPG2TOX_R_SQUARED 0.582, PBLUC_HILL_SLOPE 17.3, PBLUC_R_SQUARED 0.758, read-out: LUCIFERASE INFECTION ASSAY - IC50”, the concentration for half-maximal inhibition (IC50) amounted to 3.34 µM.
For `COC(=O)c1sc(NC(=O)COC(=O)C2Cc3ccccc3CN2S(=O)(=O)c2cccs2)c(C(=O)OC)c1C` (configuration not stated), the IC90 was more than 10 µM. Besides, the half-maximal inhibitory concentration (IC50) under setting [1] was more than 10 µM.
Turning to `CCC(NCC(O)COc1ccccc1C(C)C)C12CC3CC(CC(C3)C1)C2` (configuration not stated), the 90% effect concentration (IC90) was more than 10 µM. The half-inhibitory concentration (IC50) under setting [1] was more than 10 µM.
Regarding `C[C@H](NC(=O)[C@@H]1CSC2c3ccccc3C(=O)N21)C(=O)NC1CCCCC1` (some centres not stated), the IC90 is more than 8.52 µM. The 50% inhibitory concentration (IC50) under setting [1] is more than 8.52 µM.
`OC(CNCC1COc2ccccc2C1)COc1ccc(Cl)cc1Cl` (configuration not stated): the IC90 was more than 10 µM. Under setting [1], the half-maximal inhibitory concentration (IC50) is more than 10 µM.
Turning to `COc1ccccc1C(=O)c1cnc(Nc2cccc(-c3ccccc3)c2)[nH]1`, the concentration for an effect of 90% (IC90) is more than 8.93 µM. The half-maximal inhibitory concentration (IC50) (HEPG2TOX_HILL_SLOPE 9.5, HEPG2TOX_R_SQUARED 0.78, PBLUC_HILL_SLOPE 12, PBLUC_R_SQUARED 0.218, read-out: LUCIFERASE INFECTION ASSAY - IC50) stood at 8.03 µM.
Regarding `CCOC(=O)/C=c1\s/c(=C\c2ccc(N3CCCCC3)c([N+](=O)[O-])c2)c(=O)n1CC(=O)N1CCC(C)CC1`, the IC90 is more than 10 µM. Also, the IC50 (FFLUC_HILL_SLOPE 86.1, FFLUC_R_SQUARED 0.469, PBLUC_HILL_SLOPE 14.4, PBLUC_R_SQUARED 0.0813, read-out: LUCIFERASE INFECTION ASSAY - IC50) was more than 10 µM.
Consider `COC(=O)c1c(NC(=O)c2ccoc2)c2cc(NCC3CC=CCC3)cnc2n1CC(C)C` (configuration not stated), for which the concentration for an effect of 90% (IC90) was more than 7.32 µM. Moreover, the IC50 (FFLUC_HILL_SLOPE 3.67, FFLUC_R_SQUARED 0.106, read-out: LUCIFERASE INFECTION ASSAY - IC50) is more than 7.32 µM.
For `O=C(NNC(=O)c1csc(COc2ccccc2Cl)n1)c1ccc(Cl)cc1`, the concentration for an effect of 90% (IC90) was determined as 7.14 µM. The concentration for half-maximal inhibition (IC50) (FFLUC_HILL_SLOPE 94.2, FFLUC_R_SQUARED 0.775, HEPG2TOX_HILL_SLOPE 11.4, HEPG2TOX_R_SQUARED 0.575, PBLUC_HILL_SLOPE 4.49, PBLUC_R_SQUARED 0.337, read-out: LUCIFERASE INFECTION ASSAY - IC50) is 4.37 µM.
Consider `N#Cc1c(Cl)cccc1N1CCC(C#N)CC1`, for which the IC90 is more than 13.4 µM. For the same molecule, the half-maximal inhibitory concentration (IC50) (HEPG2TOX_HILL_SLOPE 0.959, HEPG2TOX_R_SQUARED 0.904, PBLUC_HILL_SLOPE 1.25, PBLUC_R_SQUARED 0.0637, read-out: LUCIFERASE INFECTION ASSAY - IC50) worked out at 6.33 µM.
Take `CC(C)c1ccc(-c2ccc3nnc(-c4ccc5nccnc5c4)n3c2)cc1`: the IC90 is more than 10 µM. The IC50 under setting [1] was more than 10 µM.
As for `Cc1nn(Cc2ccccc2)c(C)c1C(=O)N1CCN(CCOc2ccc(Cl)cc2)CC1`, the 90% effect concentration (IC90) is more than 10 µM. Moreover, the IC50 (PBLUC_HILL_SLOPE 3.21, PBLUC_R_SQUARED 0.27, read-out: LUCIFERASE INFECTION ASSAY - IC50) was 9.94 µM.
Take `OC(c1ccc(Nc2nc3ccccc3s2)cc1)(C(F)(F)F)C(F)(F)F`: the IC90 was 9.74 µM. The half-maximal inhibitory concentration (IC50) (PBLUC_HILL_SLOPE 1.04, 1.87, PBLUC_R_SQUARED 0.121, 0.671, read-out: LUCIFERASE INFECTION ASSAY - IC50) was 5.01 µM.
`Cc1sc2[nH]c(CSCC(=O)c3cc(C)n(-c4ccc(Br)cc4)c3C)nc(=O)c2c1C`: the 90% effect concentration (IC90) was more than 10 µM. Besides, the half-maximal inhibitory concentration (IC50) (PBLUC_HILL_SLOPE 3.74, PBLUC_R_SQUARED 0.361, read-out: LUCIFERASE INFECTION ASSAY - IC50) worked out at 6.79 µM.
For `CN(C)c1cccc(NCC2(c3ccnc(-c4ccccc4Cl)c3)CC2)c1`, the 90% effect concentration (IC90) is more than 10 µM. Besides, the IC50 under setting [1] is more than 10 µM.
`COc1ccc(C2CC(=O)Nc3ccc4ccccc4c32)c(OC)c1OC` (configuration not stated): the concentration for an effect of 90% (IC90) was more than 9.08 µM. Further, under setting [1], the half-inhibitory concentration (IC50) was more than 9.08 µM.
As for `O=C(CN1CCN(Cc2nc3ccccc3s2)CC1)N1CCc2ccccc21`, the IC90 is more than 10 µM. In addition, the 50% inhibitory concentration (IC50) under setting [1] was more than 10 µM.
For the molecule `O=C(Nc1nc2ccccn2c1C(=O)NC1CCCC1)c1cccc(Cl)c1F`, the 90% effect concentration (IC90) was found to be 1.24 µM. For the same molecule, the IC50 (HEPG2TOX_HILL_SLOPE 0.754, HEPG2TOX_R_SQUARED 0.896, PBLUC_HILL_SLOPE 3.54, PBLUC_R_SQUARED 0.569, read-out: LUCIFERASE INFECTION ASSAY - IC50) was determined as 0.669 µM.
In the case of `CC(=O)Nc1ccc(OCC(=O)NC(c2ccc(C)cc2)c2cccs2)cc1` (configuration not stated), the IC90 is more than 10 µM. Also, under “PBLUC_HILL_SLOPE 2.22, PBLUC_R_SQUARED 0.0478, read-out: LUCIFERASE INFECTION ASSAY - IC50”, the IC50 is more than 10 µM.
Consider `CC(C)c1ccc(C(=O)N2CCC(CCCC3CCN(C(=O)c4ccc(C(C)C)cc4)CC3)CC2)cc1`, for which the concentration for an effect of 90% (IC90) is more than 10 µM. In addition, under “HEPG2TOX_HILL_SLOPE 8.83, HEPG2TOX_R_SQUARED 0.537, read-out: LUCIFERASE INFECTION ASSAY - IC50”, the IC50 is more than 10 µM.
On to `COc1ccc(CNC(N)=O)cc1`, for which the IC90 was more than 18.3 µM. Also, the concentration for half-maximal inhibition (IC50) under setting [1] was more than 18.3 µM.
With `O=S(=O)(Oc1ccc(Cl)cc1)c1cc(S(=O)(=O)Oc2ccc(Cl)cc2)c(Cl)s1`, the 90% effect concentration (IC90) was more than 6.6 µM. The 50% inhibitory concentration (IC50) under setting [1] is more than 6.6 µM.
Turning to `Cc1ccccc1-c1cn2c(-c3ccc(O)cc3)cnc2cn1`, the 90% effect concentration (IC90) stood at 3.92 µM. Also, the half-inhibitory concentration (IC50) (FFLUC_HILL_SLOPE 9.55, FFLUC_R_SQUARED 0.182, HEPG2TOX_HILL_SLOPE 2.1, HEPG2TOX_R_SQUARED 0.88, PBLUC_HILL_SLOPE 16, PBLUC_R_SQUARED 0.259, read-out: LUCIFERASE INFECTION ASSAY - IC50) is 3.41 µM.
`CCc1c(C#N)c(SCC(=O)c2cc(C)n(-c3ccccc3)c2C)nc2c1C(=O)CC(C)(C)C2`: the IC90 is more than 10 µM. For the same molecule, the IC50 under setting [1] was more than 10 µM.
For `CC(C)(c1ccccc1)c1ccc(OCC(O)CNCCSc2ccc(Br)cc2)cc1` (configuration not stated), the concentration for an effect of 90% (IC90) is more than 10 µM. Besides, the IC50 under setting [1] was more than 10 µM.
Regarding `CCOc1cc(N2CCOCC2)c(OCC)cc1NC(=O)c1n[nH]c(=O)c2ccccc12`, the 90% effect concentration (IC90) is more than 10 µM. For the same molecule, the IC50 under setting [1] is more than 10 µM.
As for `N#Cc1cccc(NC(=O)CNc2cc(C(F)(F)F)ccc2N2CCCC2)c1`, the IC90 is more than 10 µM. Also, under setting [1], the IC50 was more than 10 µM.
For `Cn1c(NCc2ccccc2F)nc2cnc(Nc3cccc(OC(F)(F)F)c3)cc21`, the IC90 is more than 10 µM. In addition, the concentration for half-maximal inhibition (IC50) under setting [1] was more than 10 µM.
Turning to `O=C(c1cc(C2=NNC(=Nc3ccc(Cl)cc3)SC2)c[nH]1)N1CCCC1`, the concentration for an effect of 90% (IC90) is more than 10 µM. In addition, under “PBLUC_HILL_SLOPE 2.6, PBLUC_R_SQUARED 0.441, read-out: LUCIFERASE INFECTION ASSAY - IC50”, the 50% inhibitory concentration (IC50) turned out to be 5.46 µM.
`CCCNC(=O)c1nnsc1S(=O)(=O)c1ccc(Cl)cc1`: the IC90 is more than 9.54 µM. Moreover, the IC50 (HEPG2TOX_HILL_SLOPE 12.7, HEPG2TOX_R_SQUARED 0.778, PBLUC_HILL_SLOPE 22.3, PBLUC_R_SQUARED 0.0764, read-out: LUCIFERASE INFECTION ASSAY - IC50) amounted to 9.02 µM.
Regarding `O=C(NC1CCOc2ccccc21)c1ccccc1Oc1ccccc1` (configuration not stated), the IC90 was more than 10 µM. Moreover, under “HEPG2TOX_HILL_SLOPE 5.41, HEPG2TOX_R_SQUARED 0.0143, read-out: LUCIFERASE INFECTION ASSAY - IC50”, the IC50 is more than 10 µM.
Turning to `N=S(=O)(c1ccc(Cl)cc1)c1cccs1` (configuration not stated), the 90% effect concentration (IC90) is more than 12.8 µM. Moreover, the half-maximal inhibitory concentration (IC50) under setting [1] is more than 12.8 µM.
As to `CCOC(=O)c1cc(N/N=C(/C(=O)Nc2cccnc2)C(=O)c2ccccc2)cc(C(=O)OCC)c1`, the 90% effect concentration (IC90) is more than 10 µM. Further, the half-inhibitory concentration (IC50) under setting [1] was more than 10 µM.
Take `Cc1cc(N2CCN(C(=O)c3cc(-c4ccccc4)nc4c3cnn4C(C)C)CC2)nc(C(C)C)n1`: the IC90 is more than 10 µM. Also, the IC50 (FFLUC_HILL_SLOPE 16.4, FFLUC_R_SQUARED 0.735, read-out: LUCIFERASE INFECTION ASSAY - IC50) was more than 10 µM.
Turning to `CCOc1cc(/C=C(/C(=O)c2ccc(Br)cc2)c2nc3ccccc3[nH]2)ccc1O`, the IC90 was 4.59 µM. Besides, for the setting “PBLUC_HILL_SLOPE 158, PBLUC_R_SQUARED 0.0148, read-out: LUCIFERASE INFECTION ASSAY - IC50”, the IC50 was found to be 4.53 µM.
With `N#C/C(=C\c1ccc(C(F)(F)F)cc1)c1c[nH]c2ccccc12`, the IC90 was more than 10.6 µM. For the setting “FFLUC_HILL_SLOPE 17.8, FFLUC_R_SQUARED 0.181, PBLUC_HILL_SLOPE 2.5, PBLUC_R_SQUARED 0.114, read-out: LUCIFERASE INFECTION ASSAY - IC50”, the 50% inhibitory concentration (IC50) is more than 10.6 µM.
As for `COc1ccc(CCN=C(S)Nc2ccccc2C)cc1`, the IC90 was more than 11 µM. In addition, under setting [1], the concentration for half-maximal inhibition (IC50) is more than 11 µM.
For the molecule `Cc1nn2c(nc(NCCCc3n[nH]c(N)c3C#N)c3ccccc32)c1Cl`, the 90% effect concentration (IC90) was more than 10 µM. The IC50 under setting [1] is more than 10 µM.

These data come from ChEMBL document CHEMBL4483862, “Open-source discovery of chemical leads for next-generation chemoprotective antimalarials” (2018).
